Measurements published in patent publication US11731964B2, “Benzamide antibacterial agents” (Purdue Research Foundation, priority 2018, dated 2023).
Values after ≈ are worked out from the molar mass of the structure shown.

Columns and labels:
[1] = system: S. aureus; experiment: Screening of compounds for growth inhibition of S. aureus at 16 μg/mL (OD600); format: cell-based; conditions: compound at 16 μg/mL, 24 hours, compared to DMSO control
Protocol: Library compounds and analogs of F6 were dissolved in DMSO at 10 mg/mL. S. aureus was cultured in Mueller Hinton Broth to early exponential phase at which point culture aliquots were incubated with compounds at 16 μg/mL or DMSO in duplicates. The culture was continued at 37° C. for 24 hours. Aliquots (100 μL) of the cultures were dispensed into clear 96 well microtiter plates and OD600 was recorded. Percent normalized OD600 was obtained by using the equation [formula] wherein for a given compound, X is the OD600 of culture with the compound, Xo is that of media only and XT is the OD600 of the DMSO control.

[2] = system: L. monocytogenes ATCC 19115; experiment: MIC, broth microdilution; format: cell-based; conditions: Listeria monocytogenes, ATCC19115; L. monocytogenes ATCC 19115; read-out: MIC
Summary of the method: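 Incubate bacteria with compound, 37° C, ≥20 h, in CA-MHB, TSB or BHI (E. faecium) as assigned per strain; score MIC visually. Spot 4 μL of clear wells on TSA, incubate ≥18 h at 37° C, record MBC.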

[3] = system: MRSA USA300; experiment: Time-kill analysis; format: cell-based, Staphylococcus aureus
Protocol: The time-kill analysis was performed as previously described^29. […] Aliquots (100 μL) were collected from each treatment after 0, 2, 4, 8, 12, and 24 hours of incubation at 37° C. and subsequently serially diluted in phosphate-buffered saline (PBS). Bacteria were then transferred to TSA plates and incubated at 37° C. for 18-20 hours before viable CFU/mL was determined.

CC1CC(C)CN(S(=O)(=O)c2ccc(C(=O)Nc3nnc(-c4cccs4)o3)cc2)C1 (stereo not shown) [Compound F6]
inhibition of growth of S. aureus [1]: significantly inhibited the growth
MIC [2]: 4 µg/mL (≈ 8.96 µM)
reduction in MRSA USA300 (time-kill) ([3]; 3×MIC, after a 24-hour incubation period): 2.42 log10
in vitro effect against MRSA USA300 ([3]; time-kill analysis and MBC): bacteriostatic
